Laboratory results taken from patent EP0096293A1, “N-acetylglucosamine derivatives, process for their preparation and their use to combat malaria” (BEHRINGWERKE Aktiengesellschaft, priority 1982, dated 1983).
Where a name gives a salt, the structure may show the parent alone.

How the values were obtained:
P. falciparum [1] = experiment: Intraerythrocytic growth of malaria parasites (toxicity to the parasite); format: cell-based; details: applicant's own finding, contrary to Vanderberg et al.
P. falciparum-Merozoiten [2] = experiment: Invasion of human erythrocytes by P. falciparum merozoites in synchronous in vitro culture; format: cell-based; details: compared with other methyl glycosides (methyl gluco-, galacto-, fuco-, mannopyranosides)
P. falciparum [3] = details: findings of Vanderberg et al. (Exp. Parasitol. 1981); cited from earlier work
P. falciparum-Merozoiten [4] = details: synchronous in vitro culture, addition of the sugar; findings of Vanderberg et al. (Exp. Parasitol. 1981); cited from earlier work

Row | SMILES | intraerythrozytäre Parasiten-Wachstum (toxisch) (P. falciparum [1]) | invasionsinhibierende Wirkung (P. falciparum-Merozoiten [2]) | intraerythrozytäre Wachstum der Malaria-Parasiten (P. falciparum [3]) | Befall von Humanerythrozyten durch P. falciparum-Merozoiten (P. falciparum-Merozoiten [4])
1 | CO[C@@H]1O[C@H](CO)[C@@H](O)[C@H](O)[C@H]1NC(C)=O [β-DGlcNAcOMe, Methyl-2 -acetamido- 2 -desoxy-alpha oder beta-D-glucopyranosid] | nicht toxisch | stark erhöhte invasionsinhibierende Wirkung |  | 
2 | N[C@H]1C(O)O[C@H](CO)[C@@H](O)[C@@H]1O (stereo partly drawn) [DGlcNH3Cl, D-Glucosaminhydrochlorid] |  |  | gehemmt | gehemmt
3 | C[C@@H]1OC(O)[C@@H](O)[C@H](O)[C@@H]1O (stereo partly drawn) [L-Fucose] | nicht toxisch |  | gehemmt | gehemmt
4 | CC(=O)N[C@H]1C(O)O[C@H](CO)[C@@H](O)[C@@H]1O (stereo partly drawn) [DGlcNAc, N-Acetyl-D-glucosamin] | toxisch |  | nicht aber durch N-Acetyl-D-Glucosamin gehemmt | gehemmt
5 | CO[C@H]1O[C@H](CO)[C@@H](O)[C@H](O)[C@H]1NC(C)=O [α-DGlcNAcOMe, Methyl-2 -acetamido- 2 -desoxy-alpha oder beta-D-glucopyranosid] | nicht toxisch | stark erhöhte invasionsinhibierende Wirkung |  | 
